Results taken from US8337914B2, “Dietary food supplement containing natural cyclooxygenase inhibitors and methods for inhibiting pain and inflammation” (Access Business Group International LLC, priority 1999, dated 2012).

Biological target: T1, COX-2 (Homo sapiens, UniProt P35354)
T1 construct: purchased
T1 sequence (P35354 18-604): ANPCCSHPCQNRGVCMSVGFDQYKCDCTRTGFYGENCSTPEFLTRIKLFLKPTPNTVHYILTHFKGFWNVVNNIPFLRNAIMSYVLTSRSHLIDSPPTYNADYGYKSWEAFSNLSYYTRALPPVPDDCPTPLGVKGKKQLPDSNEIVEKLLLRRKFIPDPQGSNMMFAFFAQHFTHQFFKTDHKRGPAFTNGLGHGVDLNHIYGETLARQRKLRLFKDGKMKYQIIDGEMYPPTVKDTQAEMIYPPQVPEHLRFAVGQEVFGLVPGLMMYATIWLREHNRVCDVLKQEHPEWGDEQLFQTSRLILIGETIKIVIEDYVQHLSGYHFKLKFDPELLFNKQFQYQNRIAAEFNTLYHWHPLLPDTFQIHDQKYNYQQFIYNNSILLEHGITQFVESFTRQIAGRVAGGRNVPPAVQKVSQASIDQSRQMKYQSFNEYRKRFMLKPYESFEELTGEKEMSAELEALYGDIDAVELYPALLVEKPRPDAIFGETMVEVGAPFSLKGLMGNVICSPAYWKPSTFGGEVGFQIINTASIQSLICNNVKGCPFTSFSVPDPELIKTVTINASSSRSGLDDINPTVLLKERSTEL
Assay: COX-2 enzyme assay with oxygen monitoring system (Example 3)
Format: biochemical
Details: for Specific Activity: the higher this number the more selective for COX-2 as opposed to COX-1
Method: The present example describes an enzyme assay method using an oxygen monitoring system to monitor the COX inhibitory activity of fruit extracts. In this assay the changes of concentration of dissolved oxygen are constantly monitored by an oxygen electrode in a Dissolved Oxygen Measuring System (Instech, Plymouth Meeting, Pa.). The output is recorded by a linear Recorder (Fisher Scientific, Pittsburgh, Pa.).
Each day a fresh potassium chloride solution (15 g/100 ml distilled water) was made and the electrode was set up according to manufacturers instructions. The chamber is kept at 37° C.
A prostaglandin assay kit was used and the assay set up in a manner similar to that described for the COX-1 assay. Briefly, 50 μl phenol was added to 20 ml 100 mM Tris buffer, warmed to 37° C. for 1 minute (working buffer). To a tube of hematin 0.9 ml of the working buffer was added. 50 μl 0.1NaOH was added to an arachidonic acid vial and vortexed. 0.43 ml water was added and the solution mixed again. Samples of extracts were weighed and dissolved in the working buffer to a final concentration of 0.1 g/ml. Buffer, samples or diluted samples are used in the enzyme assays directly.
The enzyme assay is performed according to the manufacturer's instruction, which should be well known to those of skill in the art. Briefly, 600 μl of working buffer were drawn into the chamber from the overflow outlet with the injection valve close, and the main outlet connected to a syringe in the right orientation. The stir bar was set a speed of 3 k/min. At 1 minute intervals, 5 ul enzyme, 15 ul hematin solution, 6 ul buffer or sample or diluted sample and 8 ul arachidonic acid solution was injected. The oxygen concentration changes were transformed into mV and recorded.

CC(=O)Oc1ccccc1C(=O)O [Aspirin]
Specific Activity: 0.5

O=c1c(O)c(-c2ccc(O)c(O)c2)oc2cc(O)cc(O)c12 [Quercetin standard, Quercetin]
Potency compared to Celebrex (COX-2 potency relative to Celebrex): 78% | Specific Activity: 6.3
